pEC50: −log10 of the molar value. “And” between values parts separate entries of the source, which are not always exact repeats. Equal values may be shown once. Where a name gives a salt, the structure may show the parent alone. Read-outs that look alike come from different tables or passages of the source.
Assays:
SARS-CoV-2 [1] = type: cell-based
SARS-CoV-2 [2] = assay: microbe, parasite or virus in culture; type: cell-based; conditions: for pEC50: Severe acute respiratory syndrome coronavirus 2, HeLa-ACE2, read-out: HeLa-ACE2 CoV-2 EC50 GeoMean; for Emax: Severe acute respiratory syndrome coronavirus 2, HeLa-ACE2, 24 h, curve-fit effect at infinite concentration, average, read-out: HeLa-ACE2 CoV-2 Sinf Average
[3] = Uninfected HeLa-ACE2 24 h live/dead cytotoxicity counter screen; type: cell-based, human; conditions: human, uninfected HeLa-ACE2 cells
HeLa-ACE2 cells [4] = assay: as above; type: cell-based, human; conditions: for HeLa-ACE2 uninfected cytotoxicity Sinf Average (%): Sinf average of the curves; for HeLa-ACE2 uninfected cytotoxicity Sinf Average: curve-fit effect at infinite concentration
in vitro = conditions: human
SARS-CoV-2 [5] = assay: microbe, parasite or virus in culture; type: cell-based; conditions: for Emax: Severe acute respiratory syndrome coronavirus 2, Calu-3, 48 h; for pEC50: read-out: Calu-3 CoV-2 EC50 GeoMean
Calu-3 cells [6] = assay: Uninfected Calu-3 48 h Cell-Titer Glo cytotoxicity counter screen; conditions: for Calu-3 uninfected cytotoxicity Sinf Average (%): Sinf average of the curves; for Calu-3 uninfected cytotoxicity Sinf Average: curve-fit effect at infinite concentration
Calu-3 cells [7] = assay: cells; conditions: Homo sapiens; for Emax: Calu-3, 48 h; for EC50: Calu-3, read-out: Calu-3 cell count EC50 GeoMean (µM), geometric mean of replicates; for pEC50: Calu-3, read-out: Calu-3 cell count EC50 GeoMean, unrounded geometric mean
HeLa-ACE2 cells [8] = assay: cells; conditions: Homo sapiens; for EC50: HeLa-ACE2, read-out: HeLa-ACE2 cell count EC50 GeoMean (µM), geometric mean of replicates; for Emax: HeLa-ACE2, 24 h, read-out: HeLa-ACE2 cell count Sinf Average; for pEC50: HeLa-ACE2, read-out: HeLa-ACE2 cell count EC50 GeoMean, unrounded geometric mean
[9] = Uninfected Calu-3 48 h Cell-Titer Glo cytotoxicity counter screen; conditions: human, uninfected Calu-3 cells, Calu-3 uninfected cytotoxicity CC50 GeoMean, unrounded geometric mean
Calu-3 cells [10] = conditions: for Calu-3 uninfected cytotoxicity Sinf Average (%): human, 48 h
[11] = geometric mean of replicates, read-out: HeLa-ACE2 uninfected cytotoxicity CC50 GeoMean
[12] = Calu-3 uninfected cytotoxicity CC50 GeoMean (µM), geometric mean of replicates
[13] = Sinf average of the curves, read-out: Calu-3 CoV-2 Sinf Average (%)
[14] = Severe acute respiratory syndrome coronavirus 2, Calu-3, geometric mean of replicates
[15] = read-out: Calu-3 cell count Sinf Average (%)
[16] = uninfected cells, Fig. 2b group, read-out: HeLa-ACE2 CC50
[17] = unrounded geometric mean, read-out: HeLa-ACE2 uninfected cytotoxicity CC50 GeoMean
[18] = Calu-3 uninfected cytotoxicity CC50 GeoMean, unrounded geometric mean
[19] = curve-fit effect at infinite concentration, average, read-out: Calu-3 CoV-2 Sinf Average
[20] = Severe acute respiratory syndrome coronavirus 2, Calu-3, unrounded geometric mean
[21] = read-out: Calu-3 cell count Sinf Average
[22] = Calu-3 uninfected cytotoxicity CC50 GeoMean (µM)

Row | Compound | pEC50 (SARS-CoV-2 [2]; geometric mean of replicates) | CC50 at 24 h [3, 11] [µM] | Emax (SARS-CoV-2 [5]; [13]) [%] | pEC50 (SARS-CoV-2 [5]; [14]) | Emax (Calu-3 cells [7]; [15]) [%] | EC50 (Calu-3 cells [7]) [µM] | EC50 (HeLa-ACE2 cells [8]) [µM] | Emax (SARS-CoV-2 [2]) [%] | pEC50 (SARS-CoV-2 [2]; unrounded geometric mean) | CC50 at 24 h [3, 16] [µM] | CC50 at 24 h [3, 17] [µM] | HeLa-ACE2 uninfected cytotoxicity Sinf Average (HeLa-ACE2 cells [4]) [%] | CC50 (in vitro; [18]) [µM] | Emax (SARS-CoV-2 [5]; [19]) [%] | pEC50 (SARS-CoV-2 [5]; [20]) | Calu-3 uninfected cytotoxicity Sinf Average (Calu-3 cells [6]) [%] | Emax (Calu-3 cells [7]; [21]) [%] | pEC50 (Calu-3 cells [7]) | Emax (HeLa-ACE2 cells [8]) [%] | pEC50 (HeLa-ACE2 cells [8]) | other results
1 | Nc1nc(N)c2nc(CCc3ccc(C(=O)N[C@@H](CCC(=O)O)C(=O)O)cc3)cnc2n1 [10-deazaaminopterin] |  |  |  |  |  |  |  |  |  |  |  |  |  |  |  |  |  |  |  |  | interaction with remdesivir (SARS-CoV-2 [1]; ZIP model): synergistic (synergistic effect: δ >10); dose-response point, normalized infected cells (SARS-CoV-2 [1]; alone, Concentration [uM] -9.01818): 8.312 and 15.4845 and 9.998; maximal efficacy (SARS-CoV-2 [1]; compound alone): 40%; maximal efficacy (SARS-CoV-2 [1]; with EC2 of remdesivir): ~65%; maximal efficacy (SARS-CoV-2 [1]; with EC24 of remdesivir): > 80%
2 | CCOc1ccc(Cc2nc3cc(N(C)S(=O)(=O)c4cccs4)ccc3n2CC2CCCCC2)nc1 [AZ-11713908] | < 5.02 | > 33 | 93 | 5.45 | 100 | > 9.73 | > 9.59 |  |  |  |  |  |  |  |  |  |  |  |  |  | HeLa-ACE2 uninfected cytotoxicity Sinf Average (%) (HeLa-ACE2 cells [4]): -100%; CC50 (in vitro; [12]): > 29.9 µM; Calu-3 uninfected cytotoxicity Sinf Average (%) (Calu-3 cells [6]): -95%
3 | COC(=O)[C@@]12OC[C@]34[C@H]([C@@H](O)[C@@H]1O)[C@@]1(C)CC(=O)C(O)=C(C)[C@@H]1C[C@H]3OC(=O)[C@H](OC(=O)/C=C(\C)C(C)C)[C@@H]24 [Bruceantin] |  |  |  |  |  |  |  | 98 | 8.24 | ≤ 3 | < 0.117 | -100 | 0.973 | 99 | 7.71 | -53 | -100 | < 5.16 | 99 | 7.01 | 
4 | CC[C@H]1CN2CCc3cc(OC)c(OC)cc3[C@@H]2C[C@@H]1C[C@H]1NCCc2cc(O)c(OC)cc21 [Cephaeline] |  |  |  |  |  |  |  | 99 | 7.78 | ≤ 3 | 0.212 | -100 | > 4.96 | 96 | 6.85 | -68 | 100 | < 5.16 | 107 | 6.51 | 
5 | COCc1c(C(C)C)nc(C(C)C)c(/C=C/[C@@H](O)C[C@@H](O)CC(=O)O)c1-c1ccc(F)cc1 [Cerivastatin sodium] |  |  |  |  |  |  |  |  | < 5.02 | ≤ 3 | 0.308 | -74 |  | 63 | 6.46 | -100 | 89 | 6.03 | 100 | < 5.02 | CC50 at 48 h [9]: > 29.9 µM
6 | CO[C@H]1C[C@H](O[C@H]2CC[C@]3(C=O)[C@H]4CC[C@]5(C)[C@@H](C6=CC(=O)OC6)CC[C@]5(O)[C@@H]4CC[C@]3(O)C2)O[C@H](C)[C@H]1O [Cymarine] |  |  |  |  |  |  |  | 93 | 6.62 | ≤ 3 | 0.287 | -95 | > 5.87 | 87 | 6.87 | -40 | -100 | < 5.00 | 100 | 6.51 | 
7 | O=C(Nc1ccc(Cl)c(S(=O)(=O)N2CCNCC2)c1O)Nc1cccc(F)c1Cl [Elubrixin tosylate] | < 5.02 | > 39.8 | 100 | 5.16 | 67 | > 9.98 | > 9.59 |  |  |  |  |  |  |  |  |  |  |  |  |  | HeLa-ACE2 uninfected cytotoxicity Sinf Average (%) (HeLa-ACE2 cells [4]): -100%; CC50 at 48 h (in vitro; [12]): > 29.6 µM; Calu-3 uninfected cytotoxicity Sinf Average (%) (Calu-3 cells [6]): -100%
8 | CC(=O)O[C@H]1C[C@H](O[C@H]2[C@@H](O)C[C@H](O[C@H]3[C@@H](O)C[C@H](O[C@H]4CC[C@@]5(C)[C@H](CC[C@@H]6[C@@H]5C[C@@H](O)[C@]5(C)[C@@H](C7=CC(=O)OC7)CC[C@]65O)C4)O[C@@H]3C)O[C@@H]2C)O[C@H](C)[C@H]1O[C@@H]1O[C@H](CO)[C@@H](O)[C@H](O)[C@H]1O [Lanatoside C] |  |  |  |  |  |  |  | 97 | 6.69 | ≤ 3 | 1.35 | -101 | > 6.21 | 86 | 6.71 | -28 | -33 | < 5.00 | 96 | 6.42 | 
9 | O[C@@H]1CO[C@H]2[C@@H]1OC[C@H]2Oc1nc2nc(-c3ccc(-c4ccccc4)cc3)c(Cl)cc2[nH]1 [MK-8722] | < 5.02 | > 37.4 | 100 | 5.56 | 100 | > 5.66 | > 9.59 |  |  |  |  |  |  |  |  |  |  |  |  |  | HeLa-ACE2 uninfected cytotoxicity Sinf Average (%) (HeLa-ACE2 cells [4]): -100%; uninfected Calu-3 CC50 [μM] (Calu-3 cells [10]): > 29.867 ×÷ 1 (n=3) μM; Calu-3 uninfected cytotoxicity Sinf Average (%) (Calu-3 cells [10]): -95%; CC50 at 48 h (in vitro; [22]): > 29.9 µM
10 | CC[C@@H]1/C=C/C=C/C[C@H](C)[C@@H](O)[C@](C)(O)C(=O)[C@H](C)[C@@H](O)[C@H](C)C(=O)[C@H](C)[C@@H](O)[C@H](C)/C=C/C(=O)O[C@H]2[C@@H](C)[C@@H](CC1)O[C@]1(O[C@H](C[C@H](C)O)[C@H](C)CC1=O)[C@@H]2C [Oligomycin B] |  |  |  |  |  |  |  |  | < 5.02 |  | 22 | -100 | > 24.5 | 93 | > 8.27 | -89 | 50 | < 6.51 | 100 | < 5.09 | 
11 | CCCCCCCCCCCCCC(=O)O[C@@H]1[C@@H](C)[C@@]2(O)[C@@H](C=C(CO)C[C@]3(O)C(=O)C(C)=C[C@@H]23)[C@@H]2C(C)(C)[C@]12OC(C)=O [Phorbol 12-myristate 13-acetate] |  |  |  |  |  |  |  | 40 |  | ≤ 3 | > 0.201 | -58 | 22.5 | 59 | 7.79 | -100 | 100 | < 5.00 |  | < 5.02 | 
12 | CC(C)(C)c1ccc(CSc2cnn(C(C)(C)C)c(=O)c2Cl)cc1 [Pyridaben] | < 5.02 | > 39.8 | 93 | 6.69 | 47 | 0.345 | > 9.59 |  |  |  |  |  |  |  |  |  |  |  |  |  | CC50 (in vitro; [12]): > 8.99 µM; Calu-3 uninfected cytotoxicity Sinf Average (%) (Calu-3 cells [6]): -94%
13 | C=C(C)[C@]12C[C@@H](C)[C@@]34O[C@](Cc5ccccc5)(O[C@@H]1[C@@H]3C=C(COC(=O)Cc1ccc(O)c(OC)c1)C[C@]1(O)C(=O)C(C)=C[C@@H]41)O2 [Resiniferatoxin] |  |  |  |  |  |  |  | 75 | < 5.89 |  | 7.17 | -100 | 17.3 | 80 | 6.04 | -100 | 75 | < 5.54 | 100 | < 5.08 | 
14 | O=c1[nH]ccc2cc(OC3CCNCC3)ccc12 [SAR-407899] | < 5.02 | > 38.7 | 54 | < 5.42 | 97 | 2.72 | > 9.59 |  |  |  |  |  |  |  |  |  |  |  |  |  | HeLa-ACE2 uninfected cytotoxicity Sinf Average (%) (HeLa-ACE2 cells [4]): -100%; uninfected Calu-3 CC50 [μM] (Calu-3 cells [10]): > 29.867 ×÷ 1 (n=3) μM; Calu-3 uninfected cytotoxicity Sinf Average (%) (Calu-3 cells [10]): 0%; CC50 at 48 h (in vitro; [22]): > 29.9 µM
15 | Cn1c(C#N)ccc1-c1ccc2c(c1)C(C)(C)OC(=S)N2 [Tanaproget] |  |  |  |  |  |  |  | 49 | 6.85 | ≤ 3 | 0.128 | -50 |  | 87 | 5.61 | -100 | 98 | < 5.00 | 100 | < 5.02 | uninfected Calu-3 CC50 (Calu-3 cells [10]): > 19.278 ×÷ 2.07 (n=3) μM; CC50 at 48 h (in vitro; Calu-3 uninfected cytotoxicity CC50 GeoMean): > 19.3 µM
16 | N6-isopentenyladenosine [Riboprine] |  |  |  |  |  |  |  |  |  |  |  |  |  |  |  |  |  |  |  |  | interaction with remdesivir (SARS-CoV-2 [1]): synergistic (key: additive: Additive effect: -10< δ <10; synergistic effect: δ >10; antagonistic eff ect: δ <10); maximal efficacy (SARS-CoV-2 [1]): 100%

From publication PMC8175350, “Drug repurposing screens identify chemical entities for the development of COVID-19 interventions” (Nature Communications, 2021)
